Data taken from patent US4904669A, “Thiazolo/4,5-c/quinolines as major tranquilizers” (EGIS Gyogyszergyar, priority 1985, dated 1990).

Key:
[1] = test system: conditioned reflex (CR) / unconditioned reflex (UR); test: Screening test, learning and retention during one session conditioning; type: in vivo, rats
Procedure: I was elaborated for studing learning and retention of rats during one session conditioning.
During conditioning rats are trained to jump onto the top of glass cylinder by the electric foot-shock (110 V). The escape reaction (unconditioned reflex, UR) is paired with a bell as conditioned stimulus. The criterion of learning is that conditioned reflex (CR) should be elicited 10 times with 10 s intervals without reinforcement. Retention of CR is taken positive when 24 h following the experiment CR can be elicited. In these experiments animals are distributed into 4 categories on the basis of their learning ability.

[2] = test system: conditioned avoidance reflex (CAR); test: Shuttle-box, acquisition of two-way conditioned avoidance reflex (CAR); type: in vivo
Procedure: The acquisition of a two-way conditioned avoidance reflex (CAR) was analyzed in the shuttle-box during 5 consecutive days.
The instrument was constructed by the Research Institute for Electrical Industry (Hungary). It consists of six boxes, each is separated inside by a barrier with a small gate in the middle. […] They were given 100 trials per day. One trial consisted of 15 s intertrial interval, followed by 15 s CS. The last 5 s of CS overlapped the […]. At each learning session the number of CAR and intersignal reactions (IR) was automatically counted and evaluated by multiway analysis of variance (ANOVA).

[3] = test system: Benzodiazepine (BZD) receptor; test: Benzodiazepine (BZD) receptor binding, displacement of 3H-diazepam; conditions: crude cortical membrane, 1 hr at 0° C., pH 6.8; control drug
Procedure: 10. For the Studies of Benzodiazepine (BZD) Receptor Binding crude cortical membrane preparation was used. 2/ μM ^3 H-diazepam was incubated with the membrane for 1 hr at 0° C. in TRIS-citrate buffer, pH 6.8. Specific binding was determined in the presence of 10/ μM diazepam. In displacement studies chlordiazepoxid was used as control drug.

[4] = Acute toxicity (Litchfield and Wilcoxon); conditions: rat, in vivo, deaths within 48 h
pain reactions = test: Hot plate test; type: in vivo, rats; conditions: Rattus norvegicus, 56° C. plate, 1 h after administration
Procedure: The method of Woolfe and McDonald (1944) modified by Porszasz and Herr (1950) was used. The effect of each dose of the drugs was checked on a group of 10 rats. The experiments were performed on metal plates maintained at 56° C. The latency time of pain reactions was determined prior to and 1 h after the administration of the test compound. It was regarded as 100% effect if the reaction time was prolonged by more than 2.5 times the control value.

writhing = test: Writhing test (peritoneal), acetic acid; type: in vivo; conditions: Mus musculus, mice, acetic acid i.p.
Procedure: The method originally described by […] (1956) for rats modified by Witkin et al. (1961) and Koster and Anderson (1959), respectively, for mice was applied. Each dose was administered to a group of ten mice and after 20 min. 60 mg/kg of 0.6% acetic acid solution was injected i.p. As a result of chemical irritation of the peritoneum a characteristic writhing can be observed in 90% of control animals. Ten animals treated with compounds under test were kept under observation for 20 min. following i.p. injection of acid. The analgetic effect of individual doses was expressed in per cent: [formula] The denominator was taken as 90% on the basis of preliminary control examination and the […] literature.

With `CNC1=Nc2ccc(Cl)cc2C(c2ccccc2)=[N+]([O-])C1` [Chlordiazepoxide] the “inhibition of development of conditioned reflex” value ([1]; 10 mg/kg) was “does not influence”, the “number of negative responses (f)” value ([2]; 10 mg/kg, in words) was “increased” and the “acquisition of conditioned reflex” value ([2]; 10 and 5 mg/kg) was “unchanged”. The “intersignal reactions (IR)” value ([2]; 10 and 5 mg/kg, in words) was “unchanged”, the “intersignal reactions (IR)” value ([2]; s.c., 5 mg/kg, day 1) was 10.8 and the “negative responses (-f)” value ([2]; s.c., 5 mg/kg, day 1) was 11.8. For the same compound, the “positive responses (F), acquisition of conditioned reflex” value (from here on “positive responses (F), acquisition”) ([2]; s.c., 5 mg/kg, day 1) was 23.1, the “intersignal reactions (IR)” value ([2]; s.c., 5 mg/kg, day 2) was 14.0 and the “negative responses (-f)” value ([2]; s.c., 5 mg/kg, day 2) was 9.1. The “positive responses (F), acquisition” value ([2]; s.c., 5 mg/kg, day 2) was 38.7, the “intersignal reactions (IR)” value ([2]; s.c., 5 mg/kg, day 3) was 8.9 and the “negative responses (-f)” value ([2]; s.c., 5 mg/kg, day 3) was 10.2. For the same compound, the “positive responses (F), acquisition” value ([2]; s.c., 5 mg/kg, day 3) was 35.6, the “intersignal reactions (IR)” value ([2]; s.c., 5 mg/kg, day 4) was 6.7 and the “negative responses (-f)” value ([2]; s.c., 5 mg/kg, day 4) was 14.9. The “positive responses (F), acquisition” value ([2]; s.c., 5 mg/kg, day 4) was 41.1, the “intersignal reactions (IR)” value ([2]; s.c., 5 mg/kg, day 5) was 4.2 and the “negative responses (-f)” value ([2]; s.c., 5 mg/kg, day 5) was 13.0. For the same compound, the “positive responses (F), acquisition” value ([2]; s.c., 5 mg/kg, day 5) was 50.8, the “intersignal reactions (IR)” value ([2]; s.c., 10 mg/kg, day 1) was 10.8 and the “negative responses (-f)” value ([2]; s.c., 10 mg/kg, day 1) was 32.7. The “positive responses (F), acquisition” value ([2]; s.c., 10 mg/kg, day 1) was 19.9, the “intersignal reactions (IR)” value ([2]; s.c., 10 mg/kg, day 2) was 14.7 and the “negative responses (-f)” value ([2]; s.c., 10 mg/kg, day 2) was 22.8. The “positive responses (F), acquisition” value ([2]; s.c., 10 mg/kg, day 2) was 37.9, the “intersignal reactions (IR)” value ([2]; s.c., 10 mg/kg, day 3) was 8.1 and the “negative responses (-f)” value ([2]; s.c., 10 mg/kg, day 3) was 31.8. The “positive responses (F), acquisition” value ([2]; s.c., 10 mg/kg, day 3) was 33.7, the “intersignal reactions (IR)” value ([2]; s.c., 10 mg/kg, day 4) was 6.3 and the “negative responses (-f)” value ([2]; s.c., 10 mg/kg, day 4) was 36.5. For the same compound, the “positive responses (F), acquisition” value ([2]; s.c., 10 mg/kg, day 4) was 35.6, the “intersignal reactions (IR)” value ([2]; s.c., 10 mg/kg, day 5) was 6.1 and the “negative responses (-f)” value ([2]; s.c., 10 mg/kg, day 5) was 40.8. The “positive responses (F), acquisition” value ([2]; s.c., 10 mg/kg, day 5) was 41.2, the “intersignal reactions (IR)” value ([2]; s.c., 25 mg/kg, day 1) was 6.8 and the “negative responses (-f)” value ([2]; s.c., 25 mg/kg, day 1) was 74.0. For the same compound, the “positive responses (F), acquisition” value ([2]; s.c., 25 mg/kg, day 1) was 9.7, the “intersignal reactions (IR)” value ([2]; s.c., 25 mg/kg, day 2) was 7.3 and the “negative responses (-f)” value ([2]; s.c., 25 mg/kg, day 2) was 67.5. The “positive responses (F), acquisition” value ([2]; s.c., 25 mg/kg, day 2) was 12.2, the “intersignal reactions (IR)” value ([2]; s.c., 25 mg/kg, day 3) was 6.2 and the “negative responses (-f)” value ([2]; s.c., 25 mg/kg, day 3) was 67.0. The “positive responses (F), acquisition” value ([2]; s.c., 25 mg/kg, day 3) was 17.9, the “intersignal reactions (IR)” value ([2]; s.c., 25 mg/kg, day 4) was 8.2 and the “negative responses (-f)” value ([2]; s.c., 25 mg/kg, day 4) was 65.6. The “positive responses (F), acquisition” value ([2]; s.c., 25 mg/kg, day 4) was 20.0, the “intersignal reactions (IR)” value ([2]; s.c., 25 mg/kg, day 5) was 6.0 and the “negative responses (-f)” value ([2]; s.c., 25 mg/kg, day 5) was 59.8. The “positive responses (F), acquisition” value ([2]; s.c., 25 mg/kg, day 5) was 21.4 and the “displacement of 3H-diazepam on the receptor” value [3] was “displaced ^3 H-diazepam on the receptor in concentration dependent manner”.

`c1ccc2c(c1)ncc1ncsc12` [Thiazolo[4,5-c]quinoline-ethanesulfonate, thiazolo[4,5-c]quinoline-ethanesulfonate] gave an LD50 at 48 h ([4]; iv) of 51 mg/kg, an LD50 at 48 h ([4]; po, starved 16 h) of 290 mg/kg and an LD50 at 48 h ([4]; sc) of 280 mg/kg. It also gave an ED50 (pain reactions; po) of 72 mg/kg, an ED50 (pain reactions; sc) of 8 mg/kg and an ED50 (writhing; po) of 70 mg/kg. The ED50 (writhing; sc) was 56 mg/kg, the “intersignal reactions (IR)” value ([2]; s.c., 10 mg/kg, day 1) was 6.5 and the “negative responses (-f)” value ([2]; s.c., 10 mg/kg, day 1) was 17.2. The “positive responses (F), acquisition” value ([2]; s.c., 10 mg/kg, day 1) was 23.5, the “intersignal reactions (IR)” value ([2]; s.c., 10 mg/kg, day 2) was 8.8 and the “negative responses (-f)” value ([2]; s.c., 10 mg/kg, day 2) was 7.1. The “positive responses (F), acquisition” value ([2]; s.c., 10 mg/kg, day 2) was 44.2, the “intersignal reactions (IR)” value ([2]; s.c., 10 mg/kg, day 3) was 5.5 and the “negative responses (-f)” value ([2]; s.c., 10 mg/kg, day 3) was 2.4. For the same compound, the “positive responses (F), acquisition” value ([2]; s.c., 10 mg/kg, day 3) was 51.6, the “intersignal reactions (IR)” value ([2]; s.c., 10 mg/kg, day 4) was 8.2 and the “negative responses (-f)” value ([2]; s.c., 10 mg/kg, day 4) was 1.2. For the same compound, the “positive responses (F), acquisition” value ([2]; s.c., 10 mg/kg, day 4) was 66.8, the “intersignal reactions (IR)” value ([2]; s.c., 10 mg/kg, day 5) was 6.3 and the “negative responses (-f)” value ([2]; s.c., 10 mg/kg, day 5) was 6.2. For the same compound, the “positive responses (F), acquisition” value ([2]; s.c., 10 mg/kg, day 5) was 65.1, the “intersignal reactions (IR)” value ([2]; s.c., 25 mg/kg, day 1) was 11.1 and the “negative responses (-f)” value ([2]; s.c., 25 mg/kg, day 1) was 70.3. For the same compound, the “positive responses (F), acquisition” value ([2]; s.c., 25 mg/kg, day 1) was 8.1, the “intersignal reactions (IR)” value ([2]; s.c., 25 mg/kg, day 2) was 8.8 and the “negative responses (-f)” value ([2]; s.c., 25 mg/kg, day 2) was 41.8. For the same compound, the “positive responses (F), acquisition” value ([2]; s.c., 25 mg/kg, day 2) was 25.3, the “intersignal reactions (IR)” value ([2]; s.c., 25 mg/kg, day 3) was 7.0 and the “negative responses (-f)” value ([2]; s.c., 25 mg/kg, day 3) was 40.4. For the same compound, the “positive responses (F), acquisition” value ([2]; s.c., 25 mg/kg, day 3) was 23.3, the “intersignal reactions (IR)” value ([2]; s.c., 25 mg/kg, day 4) was 10.3 and the “negative responses (-f)” value ([2]; s.c., 25 mg/kg, day 4) was 46.3. The “positive responses (F), acquisition” value ([2]; s.c., 25 mg/kg, day 4) was 30.8, the “intersignal reactions (IR)” value ([2]; s.c., 25 mg/kg, day 5) was 4.0 and the “negative responses (-f)” value ([2]; s.c., 25 mg/kg, day 5) was 61.3. The “positive responses (F), acquisition” value ([2]; s.c., 25 mg/kg, day 5) was 15.5, the “intersignal reactions (IR)” value ([2]; s.c., 50 mg/kg, day 1) was 9.2 and the “negative responses (-f)” value ([2]; s.c., 50 mg/kg, day 1) was 66.8. The “positive responses (F), acquisition” value ([2]; s.c., 50 mg/kg, day 1) was 8.9, the “intersignal reactions (IR)” value ([2]; s.c., 50 mg/kg, day 2) was 7.1 and the “negative responses (-f)” value ([2]; s.c., 50 mg/kg, day 2) was 35.2. The “positive responses (F), acquisition” value ([2]; s.c., 50 mg/kg, day 2) was 24.5, the “intersignal reactions (IR)” value ([2]; s.c., 50 mg/kg, day 3) was 4.2 and the “negative responses (-f)” value ([2]; s.c., 50 mg/kg, day 3) was 51.5. For the same compound, the “positive responses (F), acquisition” value ([2]; s.c., 50 mg/kg, day 3) was 20.8, the “intersignal reactions (IR)” value ([2]; s.c., 50 mg/kg, day 4) was 3.3 and the “negative responses (-f)” value ([2]; s.c., 50 mg/kg, day 4) was 61.8. For the same compound, the “positive responses (F), acquisition” value ([2]; s.c., 50 mg/kg, day 4) was 14.6, the “intersignal reactions (IR)” value ([2]; s.c., 50 mg/kg, day 5) was 2.6 and the “negative responses (-f)” value ([2]; s.c., 50 mg/kg, day 5) was 72.8. The “positive responses (F), acquisition” value ([2]; s.c., 50 mg/kg, day 5) was 16.2.

With `Cl.c1ccc2c(c1)ncc1ncsc12` [Thiazolo[4,5-c]quinoline-hydrochloride, thiazolo[4,5-c]quinoline-hydrochloride] the “inhibition of development of conditioned reflex” value ([1]; 10 mg/kg) was “strong inhibition”, the “inhibition of development of conditioned reflex” value ([1]; 25 mg/kg) was “complete inhibition” and the LD50 at 48 h ([4]; iv) was 55 mg/kg. It also gave an LD50 at 48 h ([4]; po, starved 16 h) of 350 mg/kg, an LD50 at 48 h ([4]; sc) of 260 mg/kg and an ED50 (pain reactions; po) of 60 mg/kg. It also gave an ED50 (pain reactions; sc) of 7.5 mg/kg, an ED50 (writhing; po) of 82 mg/kg and an ED50 (writhing; sc) of 32 mg/kg.

In the case of `O=C(CCCN1CCC(O)(c2ccc(Cl)cc2)CC1)c1ccc(F)cc1` [haloperidol, reference compound], the “inhibition of developing conditioned reflex” value ([1]; 0.025 mg/kg) is reported as “strong inhibition”.
